Counter-ions that a name gives are not always drawn. Like-named read-outs stand apart in the source and are kept apart here. Each block holds one compound with its values, some of them ahead of it. Ends that are not written are not given here.
Experiments:
[1] = system: acute attacks of migraine; details: cited from earlier work
[2] = system: facial blood flow; details: marmoset (Doods et al. 2000); cited from earlier work
[3] = system: headache induced by CGRP infusion; details: control group (Petersen et al. 2005); cited from earlier work
[4] = biological target: recombinant human CL receptor/RAMP1 (Homo sapiens (Human), UniProt O60894+Q16602); assay: Recombinant receptor binding assay (125I-hCGRP)
Chain of recombinant human CL receptor/RAMP1 (Q16602 23-461): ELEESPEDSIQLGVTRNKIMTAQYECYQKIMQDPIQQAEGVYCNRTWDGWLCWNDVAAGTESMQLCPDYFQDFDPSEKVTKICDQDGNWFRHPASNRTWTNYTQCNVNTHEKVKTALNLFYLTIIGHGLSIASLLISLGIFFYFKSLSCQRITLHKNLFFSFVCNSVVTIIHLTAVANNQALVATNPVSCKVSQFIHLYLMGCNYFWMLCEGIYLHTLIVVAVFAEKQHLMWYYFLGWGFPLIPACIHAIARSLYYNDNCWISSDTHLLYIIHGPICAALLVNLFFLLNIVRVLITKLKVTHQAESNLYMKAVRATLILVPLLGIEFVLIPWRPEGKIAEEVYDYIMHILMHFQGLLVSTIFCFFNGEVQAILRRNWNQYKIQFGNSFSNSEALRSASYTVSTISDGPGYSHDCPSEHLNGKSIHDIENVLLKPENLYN
Chain of recombinant human CL receptor/RAMP1 (O60894 27-148): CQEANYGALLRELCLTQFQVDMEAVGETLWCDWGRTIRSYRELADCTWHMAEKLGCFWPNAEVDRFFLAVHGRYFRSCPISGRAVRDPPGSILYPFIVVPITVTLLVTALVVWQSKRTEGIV
Method: Human CL receptor (Genbank accession number L76380) was subcloned into the expression vector pIREShyg2 (BD Biosciences Clontech) as a 5′NheI and 3′ PmeI fragment. Human RAMP1 (Genbank accession number AJ001014) was subcloned into the expression vector pIRESpuro2 (BD Biosciences Clontech) as a 5′NheI and 3′NotI fragment. HEK 293 cells (human embryonic kidney cells; ATCC #CRL-1573) were cultured in DMEM with 4.5 g/L glucose, 1 mM sodium pyruvate and 2 mM glutamine supplemented with 10% fetal bovine serum (FBS), 100 units/mL penicillin and 100 µg/mL streptomycin, and maintained at 37° C. and 95% humidity. Cells were subcultured by treatment with 0.25% trypsin with 0.1% EDTA in HBSS. Stable cell line generation was accomplished by co-transfecting 10 μg of DNA with 30 μg Lipofectamine 2000 (Invitrogen) in 75 cm^2 flasks. CL receptor and RAMP1 expression constructs were co-transfected in equal amounts. Twenty-four hours after transfection the cells were diluted and selective medium (growth medium+300 μg/mL hygromycin and 1 μg/mL puromycin) was added the following day. A clonal cell line was generated by single cell deposition utilizing a FACS Vantage SE (Becton Dickinson). Growth medium was adjusted to 150 μg/mL hygromycin and 0.5 μg/mL puromycin for cell propagation.
Recombinant Receptor Binding Assay:
The cell suspension was disrupted with a laboratory homogenizer and centrifuged at 48,000 g to isolate membranes. The pellets were resuspended in harvest buffer plus 250 mM sucrose and stored at −70° C. For binding assays, 20 μg of membranes were incubated in 1 mL binding buffer (10 mM HEPES, pH 7.4, 5 mM MgCl2, and 0.2% BSA) for 3 h at room temperature containing 10 pM ^125I-hCGRP (GE Healthcare) and antagonist. The assay was terminated by filtration through 96-well GFB glass fiber filter plates (PerkinElmer) that had been blocked with 0.05% polyethyleneimine. The filters were washed 3 times with ice-cold assay buffer (10 mM HEPES, pH 7.4, and 5 mM MgCl2). Scintillation fluid was added and the plates were counted on a Topcount (Packard). Non-specific binding was determined and the data analysis was carried out with the apparent dissociation constant (Ki) determined by using a non-linear least squares fitting the bound CPM data to the equation below:
[formula] Where Y is observed CPM bound, Ymax is total bound counts, Ymin is non specific bound counts, (Ymax−Ymin) is specific bound counts, % Imax is the maximum percent inhibition, % I min is the minimum percent inhibition, radiolabel is the probe, and the Kd is the apparent dissociation constant for the radioligand for the receptor as determined by hot saturation experiments.

[5] = system: facial blood flow; details: rat (Escott et al. 1995); cited from earlier work
[6] = system: middle meningeal artery; details: rats, prior administration (Williamson et al. 1997); cited from earlier work
[7] = exemplary compounds of the invention, 10 pM 125I-hCGRP, membranes of HEK 293 cells, read-out: Ki
[8] = analogues disclosed in U.S. Pat. No. 7,390,798 and US 2010/0179166, read-out: Ki (CGRP binding data)

Compound: NCCCC[C@H](NC(=O)[C@@H](Cc1cc(Br)c(O)c(Br)c1)NC(=O)N1CCC(N2Cc3ccccc3NC2=O)CC1)C(=O)N1CCN(c2ccncc2)CC1 [BIBN4096BS]
effectiveness in treating acute attacks of migraine ([1]; clinical trials (Olesen et al. 2004)): effective in treating acute attacks of migraine
effect on increase in facial blood flow [2]: could be blocked
prevention of headache induced by CGRP infusion [3]: able to prevent headache induced by CGRP infusion

Compound: C[C@@H]1[C@H](c2cc(F)cc(F)c2F)C[C@H](NC(=O)c2cnc3c(c2)C[C@@]2(C3)C(=O)Nc3ncccc32)C(=O)N1CC(F)(F)F [Example 5, (6S)—N-[(3S,5S,6R)-6-Methyl-2-oxo-1-(2,2,2-trifluoroethyl)-5-(2,3,5-trifluorophenyl)piperidin-3-yl]-2′-oxo-1′,2′,5,7-tetrahydrospiro[cyclopenta[b]pyridine-6,3′-pyrrolo[2,3-b]pyridine]-3-carboxamide dihydrochloride]
Ki [4, 7]: 0.017 nM

Compound: CN1C[C@H](c2cccc(F)c2F)CC[C@@H](NC(=O)c2ccc3c(c2)CC2(C3)C(=O)Nc3ncccc32)C1=O (stereo partly drawn) [Example 8 from U.S. Pat. No. 7,390,798]
Ki [4, 8]: 7.4 nM

Compound: CC(C)(O)c1cnc2n1C[C@H](c1cccc(F)c1F)CC[C@H]2NC(=O)c1cc2c(cn1)CC1(C2)C(=O)Nc2ncccc21 (stereo partly drawn) [Example 8 from US 2010/0179166]
Ki [4, 8]: 4.3 nM

Compound: O=C(N[C@@H]1CC[C@@H](c2cccc(F)c2F)CN(CC(F)(F)F)C1=O)c1ccc2c(c1)CC1(C2)C(=O)Nc2ncccc21 (stereo partly drawn) [Example 9 from U.S. Pat. No. 7,390,798]
Ki [4, 8]: 1.9 nM

Compound: CC(C)(O)CN1C[C@H](c2cccc(F)c2F)CC[C@@H](NC(=O)c2ccc3c(c2)CC2(C3)C(=O)Nc3ncccc32)C1=O (stereo partly drawn) [Example 10 from U.S. Pat. No. 7,390,798]
Ki [4, 8]: 1.7 nM

Compound: C[C@@H]1[C@H](c2ccccc2)C[C@H](NC(=O)c2cnc3c(c2)C[C@@]2(C3)C(=O)Nc3ncc(C#N)cc32)C(=O)N1CC(F)(F)F [Example 30]
Ki [4, 7]: 0.14 nM

Compound: C[C@@H]1[C@H](c2ccccc2)C[C@H](NC(=O)c2cnc3c(c2)C[C@@]2(C3)C(=O)Nc3ncncc32)C(=O)N1CC(F)(F)F [Example 31]
Ki [4, 7]: 0.17 nM

Compound: O=C(N[C@@H]1CC[C@@H](c2cccc(F)c2F)CN(CC(F)(F)F)C1=O)N1CCC(n2c(=O)[nH]c3ncccc32)CC1 [telcagepant]
antimigraine effectiveness ([1]; phase III clinical trials, orally bioavailable): shown antimigraine effectiveness

Compound: CGRP (8-37) (VTHRLAGLLSRSGGVVKNNFVPTNVGSKAF; ends and bridges not checked; UniProt P06881 90-119, looked up, fragment) [a peptide CGRP receptor antagonist]
effect on increased facial blood flow [5]: inhibited
effect on increase of middle meningeal artery diameter [6]: blocked

The remaining lines, values ahead:

Ki [4, 7]: 0.067 nM
Compound: C[C@@H]1[C@H](c2ccccc2)C[C@H](NC(=O)c2cnc3c(c2)C[C@@]2(C3)C(=O)Nc3ncccc32)C(=O)N1CC(F)(F)F [Example 1, (6S)—N-[(3S,5S,6R)-6-Methyl-2-oxo-5-phenyl-1-(2,2,2-trifluoroethyl)piperidin-3-yl]-2′-oxo-1′,2′,5,7-tetrahydrospiro[cyclopenta[b]pyridine-6,3′-pyrrolo[2,3-b]pyridine]-3-carboxamide]

Ki [4, 7]: 0.067 nM
Compound: Cc1ccccc1[C@@H]1C[C@H](NC(=O)c2cnc3c(c2)C[C@@]2(C3)C(=O)Nc3ncccc32)C(=O)N(CC(F)(F)F)[C@@H]1C [Example 3, (6S)—N-[(3 S,5S,6R)-6-Methyl-5-(2-methylphenyl)-2-oxo-1-(2,2,2-trifluoroethyl)piperidin-3-yl]-2′-oxo-1′,2′,5,7-tetrahydrospiro[cyclopenta[b]pyridine-6,3′-pyrrolo[2,3-b]pyridine]-3-carboxamide]

Ki [4, 7]: 0.21 nM
Compound: O=C(N[C@H]1C[C@@H](c2ccccc2F)CN(CC(F)(F)F)C1=O)c1cnc2c(c1)C[C@@]1(C2)C(=O)Nc2ncccc21 [Example 6]

Ki [4, 7]: 0.25 nM
Compound: O=C(N[C@H]1C[C@@H](c2c(F)cccc2Cl)CN(CC(F)(F)F)C1=O)c1cnc2c(c1)C[C@@]1(C2)C(=O)Nc2ncccc21 [Example 11]

Ki [4, 7]: 0.055 nM
Compound: O=C(N[C@H]1C[C@@H](c2cccc(F)c2F)CN(CC2CCC2)C1=O)c1cnc2c(c1)C[C@@]1(C2)C(=O)Nc2ncccc21 [Example 17]
